# Legend:
# [1] = tested on: Human immunodeficiency virus 1; test: Antiviral activity against HIV-1 harboring F227L/V106A double mutant infected in human MT4 cells assessed as reduction in virus induced cytotoxicity incubated for 5 to 7 days by MTT assay; type: functional, organism-based; details: Human immunodeficiency virus 1, MT4
# [2] = Cytotoxicity against human MT4 cells assessed as reduction in cell viability incubated for 5 to 7 days by MTT assay; type: toxicity, cell-based; details: time 5-7 day
# [3] = tested on: Human immunodeficiency virus 1; test: Antiviral activity against HIV-1 harboring K103N mutant infected in human MT4 cells assessed as reduction in virus induced cytotoxicity incubated for 5 to 7 days by MTT assay; type: functional, organism-based; details: Human immunodeficiency virus 1, MT4
# [4] = tested on: Human immunodeficiency virus 1; test: Antiviral activity against HIV-1 harboring Y181C mutant infected in human MT4 cells assessed as reduction in virus induced cytotoxicity incubated for 5 to 7 days by MTT assay; type: functional, organism-based; details: Human immunodeficiency virus 1, MT4
# [5] = tested on: Human immunodeficiency virus 1; test: Antiviral activity against HIV-1 harboring Y188L mutant infected in human MT4 cells assessed as reduction in virus induced cytotoxicity incubated for 5 to 7 days by MTT assay; type: functional, organism-based; details: Human immunodeficiency virus 1, MT4
# [6] = tested on: Human immunodeficiency virus 1; test: Antiviral activity against HIV-1 harboring E138K mutant infected in human MT4 cells assessed as reduction in virus induced cytotoxicity incubated for 5 to 7 days by MTT assay; type: functional, organism-based; details: Human immunodeficiency virus 1, MT4
# [7] = tested on: Human immunodeficiency virus 1; test: Antiviral activity against HIV-1 RES056 infected in human MT4 cells assessed as reduction in virus induced cytotoxicity incubated for 5 to 7 days by MTT assay; type: functional, organism-based; details: Human immunodeficiency virus 1, RES056, MT4
# [8] = tested on: Human immunodeficiency virus 1; test: Antiviral activity against wild type HIV-1 3B infected in human MT4 cells assessed as reduction in virus induced cytotoxicity incubated for 5 to 7 days by MTT assay; type: functional, organism-based; details: Human immunodeficiency virus 1, 3B
# [9] = Selectivity index, ratio of CC50 for cytotoxicity against human MT4 cells to EC50 for antiviral activity against wildtype HIV-1 3B infected in human MT4 cells; type: toxicity, cell-based; details: read-out: Ratio CC50/EC50
# [10] = tested on: Human immunodeficiency virus 1; test: Antiviral activity against HIV-1 harboring L100I mutant infected in human MT4 cells assessed as reduction in virus induced cytotoxicity incubated for 5 to 7 days by MTT assay; type: functional, organism-based; details: Human immunodeficiency virus 1, MT4
# [11] = target: Human immunodeficiency virus type 1 reverse transcriptase (Human immunodeficiency virus 1, UniProt Q72547); test: Inhibition of wild type HIV-1 reverse transcriptase assessed as reduction of biotin-dUTP incorporation into […] using ABTS as substrate incubated for 1 hrs by ELISA analysis
# [12] = tested on: Human immunodeficiency virus 1; test: Potency index, ratio of Nevirapine EC50 to test compound EC50 for antiviral activity against wild type HIV-1 3B infected in human MT4 cells assessed as reduction in virus induced cytotoxicity incubated for 5 to 7 days by MTT assay; type: functional; details: time 5-7 day
# [13] = tested on: Human immunodeficiency virus 1; test: Potency index, ratio of Zidovudine EC50 to test compound EC50 for antiviral activity against wild type HIV-1 3B infected in human MT4 cells assessed as reduction in virus induced cytotoxicity incubated for 5 to 7 days by MTT assay; type: functional; details: time 5-7 day
# [14] = tested on: Human immunodeficiency virus 1; test: Potency index, ratio of 5-chloro-3-(m-tolylsulfonyl)-1H-indole-2-carboxamide EC50 to test compound EC50 for antiviral activity against HIV-1 harboring E138K mutant infected in human MT4 cells assessed as reduction in virus induced cytotoxicity incubated for 5 to 7 days by MTT assay; type: functional; details: time 5-7 day
Compound,EC50 [1] [nM],CC50 [2] [nM],EC50 [3] [nM],EC50 [4] [nM],EC50 [5] [nM],EC50 [6] [nM],EC50 [7] [nM],EC50 [8] [nM],selectivity ratio [9],EC50 [10] [nM],IC50 [11] [nM],Ratio EC50 [12],Ratio EC50 [13],Ratio EC50 [14]
Cc1ccnc2c1NC(=O)c1cccnc1N2C1CC1 [NEVIRAPINE],3540,> 15000,3550,3780,4420,158,2220,–,–,–,–,–,–,–
O=C1Nc2ccc(Cl)cc2[C@@](C#CC2CC2)(C(F)(F)F)O1 [EFAVIRENZ],–,> 6330,97,–,89,[…],105,3.2,–,–,–,–,–,–
Cc1cc(C)cc(S(=O)(=O)c2c(C(=O)NC3CC4(CCN(Cc5n[nH]c(=O)n5C)CC4)C3)[nH]c3ccc(Cl)cc23)c1,1420,178000,570,940,8070,170,> 178000,22,8350,270,–,–,–,–
Cc1cc(C#N)cc(C)c1Oc1nc(Nc2ccc(C#N)cc2)nc(N)c1Br [ETRAVIRINE],16,> 4590,–,–,15,–,35,–,> 1570,9,–,–,–,–
Cc1cc(C)cc(S(=O)(=O)c2c(C(N)=O)[nH]c3ccc(Cl)cc23)c1,47,–,17,39,1100,900,1800,4.1,2160,15,15,–,–,–
Cc1cc(C)cc(S(=O)(=O)c2c(C(=O)NC3CC4(CCN(CC(N)=O)C4)C3)[nH]c3ccc(Cl)cc23)c1 (centres undefined),420,3700,190,420,1420,72,> 3700,11,328,130,130,–,–,–
Cc1cc(C)cc(S(=O)(=O)c2c(C(=O)NC3CC4(CCNC4)C3)[nH]c3ccc(Cl)cc23)c1 (centres undefined),–,25200,–,–,–,–,–,38,664,–,–,–,–,–
Cc1cc(C)cc(S(=O)(=O)c2c(C(=O)NC3CC4(C3)CN(Cc3n[nH]c(=O)n3C)C4)[nH]c3ccc(Cl)cc23)c1,230,65600,56,250,560,40,7450,5.3,12400,47,170,30,4,23
Cc1cc(C)cc(S(=O)(=O)c2c(C(=O)NC3CC4(CCN(Cc5n[nH]c(=O)n5C)C4)C3)[nH]c3ccc(Cl)cc23)c1 (centres undefined),270,> 214000,140,210,1460,45,133000,9.9,> 21600,58,–,16,2,–
Cc1cc(C)cc(S(=O)(=O)c2c(C(=O)NC3CC4(C3)CN(CC(N)=O)C4)[nH]c3ccc(Cl)cc23)c1,500,6080,140,390,1280,74,≥ 5770,11,526,100,–,–,–,–
Cc1cc(C)cc(S(=O)(=O)c2c(C(=O)NC3CC4(CCN(S(C)(=O)=O)CC4)C3)[nH]c3ccc(Cl)cc23)c1,1290,> 222000,440,970,> 191000,100,> 222000,21,> 10300,250,–,–,–,–
Cc1cc(C)cc(S(=O)(=O)c2c(C(=O)NC3CC4(C3)CN(C(=O)OC(C)(C)C)C4)[nH]c3ccc(Cl)cc23)c1,–,> 224000,–,–,–,–,–,70,> 3220,–,–,–,–,–
Cc1cc(C)cc(S(=O)(=O)c2c(C(=O)NC3CC4(CCNCC4)C3)[nH]c3ccc(Cl)cc23)c1,–,24200,–,–,–,–,–,49,493,–,–,–,–,–
Cc1cc(C)cc(S(=O)(=O)c2c(C(=O)NC3CC4(CNC4)C3)[nH]c3ccc(Cl)cc23)c1,–,28600,–,–,–,–,–,41,676,–,–,–,–,–
Cc1cc(C)cc(S(=O)(=O)c2c(C(=O)NC3CC4(CCN(CC(N)=O)CC4)C3)[nH]c3ccc(Cl)cc23)c1,480,3610,150,850,1290,200,> 3610,9.8,367,180,–,–,–,–
Cc1cc(C)cc(S(=O)(=O)c2c(C(=O)NC3CC4(CCN(C(=O)OC(C)(C)C)CC4)C3)[nH]c3ccc(Cl)cc23)c1,–,133000,–,–,–,–,–,190,685,–,–,–,–,–
Cc1cc(C)cc(S(=O)(=O)c2c(C(=O)NC3CC4(C3)CN(S(C)(=O)=O)C4)[nH]c3ccc(Cl)cc23)c1,410,> 233000,210,470,1760,110,≥ 12800,11,> 20900,120,120,–,–,–
Cc1cn([C@H]2C[C@H](N=[N+]=[N-])[C@@H](CO)O2)c(=O)[nH]c1=O [ZIDOVUDINE],4,> 7480,–,5,4,7,10,21,> 352,5,–,–,–,–
Cc1cc(C)cc(S(=O)(=O)c2c(C(=O)NC3CC4(CCN(C(=O)OC(C)(C)C)C4)C3)[nH]c3ccc(Cl)cc23)c1 (centres undefined),–,171000,–,–,–,–,–,120,1470,–,–,–,–,–
Cc1cc(C)cc(S(=O)(=O)c2c(C(=O)NC3CC4(CCN(S(C)(=O)=O)C4)C3)[nH]c3ccc(Cl)cc23)c1 (centres undefined),600,205000,330,330,1930,69,> 205000,12,16500,110,–,–,–,–

# Source: ChEMBL document CHEMBL5137034, “Chemical space exploration around indolylarylsulfone scaffold led to a novel class of highly active HIV-1 NNRTIs with spiro structural features” (Eur J Med Chem, 2022)
